Assay results published in patent US7951777B2, “Compositions and methods for treatment of cardiovascular disease” (Vectus Biosystems Limited, priority 2004, dated 2011).
Entries after “also recorded” stand apart in the source; their conditions may differ.

How the values were obtained:
[1] = tested on: WKY rats on high salt diet; assay: Effect of VIP fragments on myocardial fibrosis; assay type: in vivo, rat; conditions: for degree of myocardial fibrosis: 5 pmol/kg/min for 4 weeks via Alzet minipump, compared with vehicle control, Masson Trichrome sections; for effectiveness on myocardial fibrosis relative to VIP: all peptides 5 pmol/kg/min for 4 weeks, FIGS. 8 to 10
Text: To determine whether smaller VIP related peptides had any of the biological activities of the complete VIP molecule, particularly in reducing myocardial fibrosis, the degree of myocardial fibrosis after treatment with VIP(1-12) (SEQ ID No. 2) at 5 pmol/kg/min and VIP (6-28) (SEQ ID No. 3) at 5 pmol/kg/min for 4 weeks via Alzet minipump was compared with the complete VIP (5 pmol/kg/min) (SEQ ID No. 1) and vehicle control. The VIP fragments were purchased from Auspep (Melbourne, Australia).
Briefly, 14 week old WKY rats were commenced on high salt diet as described earlier. They underwent operative insertion of an Alzet minipump for infusion of VIP peptide or vehicle. After 4 weeks the rats were anaesthetised, the hearts harvested and myocardial fibrosis quantitated on Masson Trichrome sections using Image Pro Plus Version 5 (Cybernetics). […] FIGS. 8 to 10 show the results of these studies.

[2] = tested on: SHR and WKY rats; assay: Preliminary four-week VIP infusion in rat models of myocardial fibrosis; assay type: in vivo; conditions: VIP 7.2 nmol/kg/day via Alzet mini pump for four weeks, compared to control groups
Text: Further preliminary experiments have been conducted on a number of animal models, which encompass a range of fibrous tissue replacement, varying from mild to moderate to severe. The experiments on the animal models encompassed a variety of aetiologies (alone and in combination) and a range of levels of induced fibrosis. For these experiments two types of rats were used, spontaneously hypertensive rats (SHR) and normotensive control Wistar-Kyoto rats (WKY). The WKY rats were given: 1) low salt diet, 2) high salt diet, or 3) L-NAME (ω-monomethyl-nitro-L-arginine; 10 mg/kg/day) plus high salt diet. The SHR rats were given low or high salt diets. The effect of VIP infusion in diabetic heart disease was also studied in the WKY rate with streptozotocin induced diabetes.
In each treatment group, rats were randomised to VIP (SEQ ID No. 1) or vehicle infusion (n=24 in each group) for four weeks. VIP was administered via Alzet mini pump at a rate of 7.2 nmol/kg/day.
After four weeks, the rats were anaesthetised and the hearts were harvested. Myocardial VIP concentrations and myocardial fibrosis were quantitated.

[3] = tested on: WKY rats; assay: Acute VIP infusion, uptake of VIP by the myocardium; assay type: in vivo, rat
Procedure: In preliminary studies a series of acute infusion experiments have been conducted in animal models.
Fourteen week old WKY rats were randomised to low salt diet (0.008%), intermediate salt diet (2.2%), high salt diet (4.4%) or high salt diet plus L-NAME (10 mg/kg/day) in the drinking water for 4 weeks (n=16 rats per group). On the day of the experiment the rats were anaesthetised and venous and arterial cannulae inserted. After a one hour rest equilibration period the rats were randomised to vehicle control (Haemaccell, Aventis) or VIP (10 pmol/kg/min) infusion (SEQ ID No. 1) for one hour at an infusion rate of 0.017 ml/min. The hearts were then harvested, myocardial VIP concentrations were measured and myocardial fibrosis quantitated.
The difference between the mean myocardial VIP concentrations after VIP or control infusion is a measure of VIP uptake by the heart.
(§1) VIP was measured by radioimmunoassay in known manner (see Davis R. E., Shelley S., Macdonald G. J. & Duggan K. A. (1992) The effects of a high sodium diet on the metabolism and secretion of vasoactive intestinal peptide in the rabbit. J. Physiol. 451:17-23. Duggan K. A., Ye V. Z. C., Jones D. M. Davis R. E. & Macdonald G. J. (1995) Effects of Endopeptidase 24.11 blockade on plasma and tissue concentrations of vasoactive intestinal peptide Clin. Sci. 89:267-271). […]

[4] = tested on: WKY rat fed a high salt diet; assay: VIP infusion in model of myocardial fibrosis: high salt diet; assay type: in vivo
Procedure: (§2) Three animal models of myocardial fibrosis were used (animals obtained from Australian Animal Resources, Perth, Western Australia, Australia) • i) WKY rat fed a high salt diet • ii) WKY rat fed a high salt diet and given L-NAME (ω-monomethyl-nitro-L-arginine, Sigma Chemical Co.) 10 mg/kg/day in the drinking water • iii) WKY rats with diabetes induced by streptozotocin injection 60 mg/kg
(§3) In each model the rats were randomised to VIP (H-[…]NH2, (SEQ ID No. 1) obtained from Auspep, Australia) or vehicle control (Haemaccel, Aventis) infusion for 4 weeks via Alzet minipump (n=6-8 each experimental group). The dose of VIP was 5 pmol/kg/min.
(§4) In models i) and ii) 14 week old WKY rats were commenced on high salt diet or high salt diet plus L-NAME. They underwent operative insertion of an Alzet minipump for infusion of VIP or vehicle. After 4 weeks the rats were anaesthetised and the hearts harvested. Myocardial VIP and myocardial fibrosis were quantitated.
(§5) Myocardial VIP concentrations and myocardial fibrosis were quantitated.
as §1

[5] = tested on: WKY rat fed a high salt diet and given L-NAME; assay: VIP infusion in model of myocardial fibrosis: high salt diet plus L-NAME; assay type: in vivo
Procedure: as §2, §3, §4, §5, §1

[6] = tested on: WKY rats with diabetes induced by streptozotocin injection; assay: VIP infusion in model of myocardial fibrosis: streptozotocin diabetes; assay type: in vivo, rat; conditions: VIP 5 pmol/kg/min for 4 weeks after 8 weeks of diabetes; FIG. 6
Procedure: as §2, §3
In model iii) rats were injected with streptozotocin 60 mg/kg at 14 weeks of age. After 8 weeks the diabetic rats were randomised to VIP infusion (5 pmol/kg/min) (SEQ ID No. 1) or no treatment. VIP was administered as above. […]
as §5, §1

[7] = tested on: isolated rat heart; conditions: heart perfused with VIP before ischaemia and reperfusion; cited from earlier work
[8] = tested on: isolated trabeculae from human hearts; conditions: atria and ventricles of hearts from previously healthy individuals; cited from earlier work
[9] = tested on: normal heart; conditions: cited from earlier work

## VIP(6-28): active fragment of VIP, residues 6-28, purchased from Auspep (FTDNYTRLRKQMAVKKYLNSILN; listed as Homo sapiens)
[1]
  degree of myocardial fibrosis: decreased the degree of myocardial fibrosis
  effectiveness on myocardial fibrosis relative to VIP: as effective as VIP

## VIP(1-12): active fragment of VIP, residues 1-12, purchased from Auspep (HSDAVFTDNYTR; listed as Homo sapiens)
[1]
  degree of myocardial fibrosis: decreased the degree of myocardial fibrosis
  effectiveness on myocardial fibrosis relative to VIP: approximately ⅓

## CC[C@H](C)[C@H](NC(=O)[C@H](CO)NC(=O)[C@H](CC(N)=O)NC(=O)[C@H](CC(C)C)NC(=O)[C@H](Cc1ccc(O)cc1)NC(=O)[C@H](CCCCN)NC(=O)[C@H](CCCCN)NC(=O)[C@@H](NC(=O)[C@H](C)NC(=O)[C@H](CCSC)NC(=O)[C@H](CCC(N)=O)NC(=O)[C@H](CCCCN)NC(=O)[C@H](CCCNC(=N)N)NC(=O)[C@H](CC(C)C)NC(=O)[C@H](CCCNC(=N)N)NC(=O)[C@@H](NC(=O)[C@H](Cc1ccc(O)cc1)NC(=O)[C@H](CC(N)=O)NC(=O)[C@H](CC(=O)O)NC(=O)[C@@H](NC(=O)[C@H](Cc1ccccc1)NC(=O)[C@@H](NC(=O)[C@H](C)NC(=O)[C@H](CC(=O)O)NC(=O)[C@H](CO)NC(=O)[C@@H](N)Cc1c[nH]cn1)C(C)C)[C@@H](C)O)[C@@H](C)O)C(C)C)C(=O)N[C@@H](CC(C)C)C(=O)N[C@@H](CC(N)=O)C(N)=O [VIP]
[2]
  myocardial fibrosis index: significantly lower
[3]; VIP 10 pmol/kg/min for one hour, low, intermediate, high salt diet or high salt diet plus L-NAME, FIG. 1
  difference between mean myocardial VIP concentrations after VIP or control infusion (VIP uptake by the heart): As fibrosis worsens the amount of VIP taken up by the heart increases; also recorded: increase as the degree of fibrosis increased
[3]; acute infusion experiments in animal models with differing levels of fibrosis
  uptake of VIP by the heart from the plasma: more avid with increasing degrees of fibrosis; also recorded: the higher the level of fibrosis, the greater the uptake of VIP by the heart
[4]; VIP 5 pmol/kg/min 4 weeks, compared with untreated 14 week old rats, FIG. 4
  regression of existing myocardial fibrosis: regression of myocardial fibrosis
[4]; VIP 5 pmol/kg/min for 4 weeks via Alzet minipump vs vehicle control, FIG. 2
  myocardial fibrosis index: significantly lower
[4]; after four week intravenous infusion of VIP or vehicle control, FIG. 7A
  myocardial content of VIP: clear association between the degree of fibrosis and uptake of exogenous VIP
[5]; VIP 5 pmol/kg/min 4 weeks, compared with untreated 14 week old rats, FIG. 5
  regression of existing myocardial fibrosis: regression of myocardial fibrosis
[5]; VIP 5 pmol/kg/min for 4 weeks via Alzet minipump vs vehicle control, L-NAME 10 mg/kg/day, FIG. 3
  myocardial fibrosis index: significantly lower
[5]; after four week intravenous infusion of VIP or vehicle control, FIG. 7B
  myocardial content of VIP: clear association between the degree of fibrosis and uptake of exogenous VIP
[6]
  regression of existing myocardial fibrosis: regression of myocardial fibrosis
[7]
  myocardial function (left ventricular functions, coronary flow, tissue injury): significant improvement of myocardial function
[8]
  ionotropic effect: direct positive ionotropic effect
[9]
  uptake of injected VIP by the heart: not taken up by the normal heart
